ChEMBL document CHEMBL1152531, “Amphotericin B-induced ion flux is markedly attenuated in phosphatidylglycerol membrane as evidenced by a newly devised fluorometric method” (Bioorg Med Chem, 2009)
Active and inactive are the calls of the source. No cut-off for these calls is given here.

Experiments:
[1] = Binding affinity to bilayer membrane of 1-palmitoyl-2-oleoyl-sn-glycero-3-phosphatidylglycerol and 30% 1-palmitoyl-2-oleoyl-sn-glycero-3-phosphocholine at 6.3 uM after 18 hrs by UV spectroscopy
[2] = (§1) Membrane permeabilizing activity across 1-palmitoyl-2-oleoyl-sn-glycero-3-phosphatidylglycerol liposome assessed as K+ ion influx at compound to lipid ratio of 0.001 to 0.01 after 18 hrs by BCECF staining-based fluorometric method; format: physicochemical; conditions: artificial membrane
[3] = as §1, with “across large unilamellar vesicle containing” for “across”, “and 10% 1-palmitoyl-2-oleoyl-sn-glycero-3-phosphocholine” for “liposome”; format: physicochemical
[4] = Membrane permeabilizing activity across cholesterol-containing 1-palmitoyl-2-oleoyl-sn-glycero-3-phosphocholine liposome assessed as K+ ion influx at compound to lipid ratio of 0.0001 to 0.001 after 18 hrs by BCECF staining-based fluorometric method; format: physicochemical; conditions: artificial membrane
[5] = Membrane permeabilizing activity across 1-palmitoyl-2-oleoyl-sn-glycero-3-phosphocholine liposome assessed as K+ ion influx at compound to lipid ratio of 0.001 to 0.01 after 18 hrs by BCECF staining-based fluorometric method; format: physicochemical; conditions: artificial membrane
[6] = Membrane permeabilizing activity across 1-palmitoyl-2-oleoyl-sn-glycero-3-phosphocholine liposome assessed as K+ ion influx at compound to lipid ratio of 0.0001 to 0.001 after 18 hrs by BCECF staining-based fluorometric method; format: physicochemical; conditions: artificial membrane
[7] = as §1, with “across large unilamellar vesicle containing” for “across”, “and 30% 1-palmitoyl-2-oleoyl-sn-glycero-3-phosphocholine” for “liposome”; format: physicochemical
[8] = Membrane permeabilizing activity across ergosterol-containing 1-palmitoyl-2-oleoyl-sn-glycero-3-phosphocholine liposome assessed as K+ ion influx at compound to lipid ratio of 0.0001 to 0.001 after 18 hrs by BCECF staining-based fluorometric method; format: physicochemical; conditions: artificial membrane
[9] = test system: Lipid bilayer; assay: Binding affinity to 1-palmitoyl-2-oleoyl-sn-glycero-3-phosphatidylglycerol bilayer membrane at 6.3 uM after 18 hrs by UV spectroscopy
[10] = test system: Lipid bilayer; assay: Binding affinity to 1-palmitoyl-2-oleoyl-sn-glycero-3-phosphocholine bilayer membrane at 6.3 uM after 18 hrs by UV spectroscopy

Structure (SMILES): C[C@@H]1[C@H](O)[C@@H](C)/C=C/C=C/C=C/C=C/C=C/C=C/C=C/[C@H](O[C@@H]2O[C@H](C)[C@@H](O)[C@H](N)[C@@H]2O)C[C@@H]2O[C@](O)(C[C@@H](O)C[C@@H](O)[C@H](O)CC[C@@H](O)C[C@@H](O)CC(=O)O[C@H]1C)C[C@H](O)[C@H]2C(=O)O [AMPHOTERICIN B]
- Activity [1]: Active
- Activity [2]: Not Active
- Activity [3]: Active
- Activity [4]: Not Active
- Activity [5]: Active
- Activity [6]: Not Active
- Activity [7]: Active
- Activity [8]: Active
- Activity [9]: Active
- Activity [10]: Active
